Source: patent US20240101576A1, “HETEROCYCLIC INHIBITORS OF EGFR AND/OR HER2, FOR USE IN THE TREATMENT OF CANCER” (Scorpion Therapeutics, Inc., priority 2020, published 2024)

Key:
Format in all cases: cell-based
[1] = biological target: T1, EGFR exon 20 ASV Ins V769_D770 (Ba/F3 cells) (Homo sapiens, UniProt P00533, INS769ASV); assay: Inhibitor activity on EGFR-dependent cell growth (CellTiter-Glo, 72 h), Ba/F3 EGFR exon 20 ASV Ins; details: read-out: BaF3 ASV IC50
T1 construct: expressed in transfected cells; host or cells: Ba/F3 (murine pro-B cells), retroviral transduction, puromycin selection, IL3-independent pool
T1 sequence (P00533 with tags, fused parts or gaps INS769ASV): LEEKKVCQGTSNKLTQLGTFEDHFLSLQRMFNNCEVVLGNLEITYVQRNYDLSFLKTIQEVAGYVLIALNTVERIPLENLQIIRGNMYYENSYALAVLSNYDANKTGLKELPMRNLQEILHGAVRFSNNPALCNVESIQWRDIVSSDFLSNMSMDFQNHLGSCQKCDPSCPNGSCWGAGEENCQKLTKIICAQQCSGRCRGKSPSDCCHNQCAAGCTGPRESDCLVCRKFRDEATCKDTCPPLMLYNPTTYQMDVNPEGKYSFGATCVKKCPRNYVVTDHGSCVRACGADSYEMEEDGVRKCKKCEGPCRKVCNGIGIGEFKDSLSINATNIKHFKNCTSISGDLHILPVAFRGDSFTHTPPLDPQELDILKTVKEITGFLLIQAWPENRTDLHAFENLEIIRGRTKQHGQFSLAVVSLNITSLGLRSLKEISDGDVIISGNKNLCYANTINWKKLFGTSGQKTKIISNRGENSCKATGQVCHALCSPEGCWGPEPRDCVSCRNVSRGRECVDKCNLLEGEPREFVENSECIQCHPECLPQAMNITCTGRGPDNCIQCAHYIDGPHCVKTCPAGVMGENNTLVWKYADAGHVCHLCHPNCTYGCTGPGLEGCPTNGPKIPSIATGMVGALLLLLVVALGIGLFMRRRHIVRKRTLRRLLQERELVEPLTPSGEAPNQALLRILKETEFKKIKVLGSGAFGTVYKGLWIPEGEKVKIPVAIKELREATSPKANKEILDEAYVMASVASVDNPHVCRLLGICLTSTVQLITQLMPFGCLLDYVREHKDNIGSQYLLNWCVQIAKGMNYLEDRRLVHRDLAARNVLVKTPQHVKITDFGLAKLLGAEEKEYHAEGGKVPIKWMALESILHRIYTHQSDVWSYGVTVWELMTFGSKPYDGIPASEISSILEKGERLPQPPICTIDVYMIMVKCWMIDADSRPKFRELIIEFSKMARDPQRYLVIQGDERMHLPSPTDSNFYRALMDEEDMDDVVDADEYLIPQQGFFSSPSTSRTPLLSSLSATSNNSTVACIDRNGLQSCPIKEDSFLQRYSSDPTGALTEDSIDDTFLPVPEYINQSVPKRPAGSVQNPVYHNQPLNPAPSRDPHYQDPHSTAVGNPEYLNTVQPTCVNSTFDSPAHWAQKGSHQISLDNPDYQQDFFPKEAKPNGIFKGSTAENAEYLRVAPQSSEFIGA
How it was run: (§1)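 IC50s derive from a sigmoidal dose–response fit of CellTiter-Glo signal. The signal was normalised between […]-treated cells and cell-free medium. Ba/F3 mutant-EGFR cells, seeded at 400–800/well depending on the line, had 72 h of exposure to a 10-point, 3-fold compound series.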

[2] = biological target: T2, EGFR exon 20 SVD Ins D770_N771 (Ba/F3 cells) (Homo sapiens, UniProt P00533, INS770SVD); assay: Inhibitor activity on EGFR-dependent cell growth (CellTiter-Glo, 72 h), Ba/F3 EGFR exon 20 SVD Ins; details: read-out: BaF3 SVD IC50
T2 construct: expressed in transfected cells; host or cells: Ba/F3 (murine pro-B cells), retroviral transduction, puromycin selection, IL3-independent pool
T2 sequence (P00533 with tags, fused parts or gaps INS770SVD): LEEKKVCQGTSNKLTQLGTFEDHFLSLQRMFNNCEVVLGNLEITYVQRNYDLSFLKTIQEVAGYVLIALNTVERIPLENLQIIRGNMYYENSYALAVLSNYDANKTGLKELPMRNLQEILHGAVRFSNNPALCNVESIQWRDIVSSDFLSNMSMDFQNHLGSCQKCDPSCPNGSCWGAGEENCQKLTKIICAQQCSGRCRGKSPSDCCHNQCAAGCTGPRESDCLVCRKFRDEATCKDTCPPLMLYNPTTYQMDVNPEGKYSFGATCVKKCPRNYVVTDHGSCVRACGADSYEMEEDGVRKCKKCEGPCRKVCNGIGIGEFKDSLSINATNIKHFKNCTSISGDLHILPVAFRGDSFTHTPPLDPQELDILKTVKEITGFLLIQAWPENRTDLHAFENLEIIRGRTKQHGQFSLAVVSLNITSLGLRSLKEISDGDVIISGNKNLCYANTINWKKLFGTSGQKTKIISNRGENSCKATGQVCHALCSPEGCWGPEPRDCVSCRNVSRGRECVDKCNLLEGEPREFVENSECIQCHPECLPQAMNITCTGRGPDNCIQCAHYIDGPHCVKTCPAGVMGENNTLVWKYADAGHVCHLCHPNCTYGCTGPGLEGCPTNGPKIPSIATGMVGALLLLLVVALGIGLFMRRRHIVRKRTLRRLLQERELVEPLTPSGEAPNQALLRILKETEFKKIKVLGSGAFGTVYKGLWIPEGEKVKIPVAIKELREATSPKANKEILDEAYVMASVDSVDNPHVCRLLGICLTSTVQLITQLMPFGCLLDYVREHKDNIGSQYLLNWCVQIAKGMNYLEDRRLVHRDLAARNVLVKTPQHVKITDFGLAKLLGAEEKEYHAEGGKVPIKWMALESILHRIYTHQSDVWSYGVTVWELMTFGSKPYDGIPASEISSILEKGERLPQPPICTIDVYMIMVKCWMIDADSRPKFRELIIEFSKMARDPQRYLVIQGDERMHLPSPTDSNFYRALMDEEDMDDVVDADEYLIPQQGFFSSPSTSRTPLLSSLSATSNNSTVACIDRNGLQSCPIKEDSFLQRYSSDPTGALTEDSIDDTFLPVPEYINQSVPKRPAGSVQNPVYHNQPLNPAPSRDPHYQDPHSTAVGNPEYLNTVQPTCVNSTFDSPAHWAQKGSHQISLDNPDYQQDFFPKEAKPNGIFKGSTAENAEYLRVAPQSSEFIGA
How it was run: as §1

[3] = biological target: T3, EGFR WT (Ba/F3 cells) (Homo sapiens, UniProt P00533); assay: Inhibitor activity on EGFR-dependent cell growth (CellTiter-Glo, 72 h), Ba/F3 EGFR WT; details: read-out: BaF3 WT IC50
T3 construct: expressed in transfected cells; host or cells: Ba/F3 (murine pro-B cells), retroviral transduction, puromycin selection, maintained with EGF
T3 sequence (P00533 25-1210): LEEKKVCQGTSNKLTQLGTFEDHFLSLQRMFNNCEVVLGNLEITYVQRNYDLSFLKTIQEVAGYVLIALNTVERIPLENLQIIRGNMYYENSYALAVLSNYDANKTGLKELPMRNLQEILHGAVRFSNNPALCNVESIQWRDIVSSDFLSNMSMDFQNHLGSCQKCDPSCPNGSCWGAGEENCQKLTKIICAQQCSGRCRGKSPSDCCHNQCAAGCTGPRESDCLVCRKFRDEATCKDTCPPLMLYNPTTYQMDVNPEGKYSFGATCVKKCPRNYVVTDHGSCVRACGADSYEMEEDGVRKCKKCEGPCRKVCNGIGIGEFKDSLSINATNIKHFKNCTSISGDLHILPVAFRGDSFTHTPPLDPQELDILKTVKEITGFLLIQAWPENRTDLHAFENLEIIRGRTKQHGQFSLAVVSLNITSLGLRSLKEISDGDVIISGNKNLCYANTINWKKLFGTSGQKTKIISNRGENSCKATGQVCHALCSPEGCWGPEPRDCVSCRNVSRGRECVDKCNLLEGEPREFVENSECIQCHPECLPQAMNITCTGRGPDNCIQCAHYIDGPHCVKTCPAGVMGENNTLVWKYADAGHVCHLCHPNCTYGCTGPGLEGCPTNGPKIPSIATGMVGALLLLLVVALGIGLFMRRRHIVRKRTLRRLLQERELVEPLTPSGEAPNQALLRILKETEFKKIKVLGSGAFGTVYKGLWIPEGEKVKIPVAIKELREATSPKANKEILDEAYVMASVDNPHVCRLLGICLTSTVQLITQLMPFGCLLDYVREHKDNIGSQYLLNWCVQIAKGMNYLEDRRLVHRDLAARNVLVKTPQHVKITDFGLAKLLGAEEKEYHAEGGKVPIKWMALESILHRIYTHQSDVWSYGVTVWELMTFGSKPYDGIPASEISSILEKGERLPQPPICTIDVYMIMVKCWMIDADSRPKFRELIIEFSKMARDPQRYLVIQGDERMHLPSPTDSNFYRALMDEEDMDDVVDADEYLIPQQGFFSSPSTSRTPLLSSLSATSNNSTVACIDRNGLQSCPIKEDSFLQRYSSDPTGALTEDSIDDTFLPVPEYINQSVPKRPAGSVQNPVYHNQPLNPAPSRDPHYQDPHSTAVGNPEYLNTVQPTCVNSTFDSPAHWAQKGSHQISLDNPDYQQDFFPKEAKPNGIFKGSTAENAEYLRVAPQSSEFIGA
How it was run: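 This growth assay used Ba/F3 cells that depend on wild-type EGFR and are kept in EGF without IL3. Compounds were made up as 10 mM DMSO stocks and diluted 3-fold over 10 points. 120 nL went onto 600 cells/well. After 72 hours, 40 μL CellTiter-Glo was added and luminescence read on EnVision after 30 min.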

[4] = biological target: T4, EGFR exon 20 NPG Ins D770_N771 (Ba/F3 cells) (Homo sapiens, UniProt P00533, INS770NPG); assay: Inhibitor activity on EGFR-dependent cell growth (CellTiter-Glo, 72 h), Ba/F3 EGFR exon 20 NPG Ins; details: read-out: BaF3 NPG IC50
T4 construct: expressed in transfected cells; host or cells: Ba/F3 (murine pro-B cells), retroviral transduction, puromycin selection, IL3-independent pool
T4 sequence (P00533 with tags, fused parts or gaps INS770NPG): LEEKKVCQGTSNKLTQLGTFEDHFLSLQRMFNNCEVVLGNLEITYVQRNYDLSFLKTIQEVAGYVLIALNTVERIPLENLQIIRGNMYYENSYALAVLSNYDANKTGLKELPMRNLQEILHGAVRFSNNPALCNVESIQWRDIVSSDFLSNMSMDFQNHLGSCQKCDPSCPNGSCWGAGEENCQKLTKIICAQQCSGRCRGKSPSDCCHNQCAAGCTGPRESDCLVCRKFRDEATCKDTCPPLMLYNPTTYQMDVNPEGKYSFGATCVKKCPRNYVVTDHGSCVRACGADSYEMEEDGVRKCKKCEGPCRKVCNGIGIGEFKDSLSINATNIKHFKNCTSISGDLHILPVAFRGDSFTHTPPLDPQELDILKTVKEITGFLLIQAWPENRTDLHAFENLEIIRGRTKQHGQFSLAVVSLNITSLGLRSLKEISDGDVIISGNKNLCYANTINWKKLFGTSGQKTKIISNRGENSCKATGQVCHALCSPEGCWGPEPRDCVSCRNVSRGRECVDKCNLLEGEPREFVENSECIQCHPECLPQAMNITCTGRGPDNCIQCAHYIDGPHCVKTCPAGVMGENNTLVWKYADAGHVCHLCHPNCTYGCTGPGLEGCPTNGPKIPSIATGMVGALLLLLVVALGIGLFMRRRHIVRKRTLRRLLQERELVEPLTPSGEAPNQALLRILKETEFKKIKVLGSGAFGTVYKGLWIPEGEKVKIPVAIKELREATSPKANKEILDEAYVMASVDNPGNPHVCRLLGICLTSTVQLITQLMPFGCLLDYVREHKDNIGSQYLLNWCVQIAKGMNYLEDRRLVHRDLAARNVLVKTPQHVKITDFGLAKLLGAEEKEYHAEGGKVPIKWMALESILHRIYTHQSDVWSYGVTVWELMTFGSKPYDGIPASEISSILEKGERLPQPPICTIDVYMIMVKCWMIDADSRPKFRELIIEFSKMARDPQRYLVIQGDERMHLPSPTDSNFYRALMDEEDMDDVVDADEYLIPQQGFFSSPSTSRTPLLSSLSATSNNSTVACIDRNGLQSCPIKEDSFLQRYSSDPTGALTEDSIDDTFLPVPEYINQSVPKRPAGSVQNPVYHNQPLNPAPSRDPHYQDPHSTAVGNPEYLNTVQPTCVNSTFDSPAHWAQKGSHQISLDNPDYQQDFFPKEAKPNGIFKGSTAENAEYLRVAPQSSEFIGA
Text: Example A. Inhibitor Activity on EGFR-Dependent Cell Growth
Cell lines are generated by transducing Ba/F3 cells with retroviruses containing vectors with EGFR WT, EGFR L858R, EGFR exon 19del, EGFR L858R/C797S, EGFR exon 20 NPG Ins D770_N771, EGFR exon 20 ASV Ins V769_D770, EGFR exon 20 SVD Ins D770_N771, or EGFR exon 20 FQEA Ins A763_V764 genes and a puromycin selection marker. Transduced cells are selected with puromycin for 7 days and are then be transferred into culture media without Interleukin 3 (IL3). EGFR WT cells are maintained with supplemental EGF. Surviving cells are confirmed to express EGFR by Western blot and maintained as a pool. The IC50 date were included in Table 6 and Table 7.
1.1 Cells are harvested from flask into cell culture medium and the cell number counted.
1.2 Cells are diluted with culture medium to the desired density and 40 μL of cell suspension is added into each well of 384-well cell culture plate and the seeding density is 800 (FQEA, exon 19del), 600 (WT, NPG, L858R/C797S), or 400 (ASV, SVD, L858R) cells/well.
2 Compound Preparation and Treatment
2.1 Test compounds are dissolved to 10 mM in a DMSO stock solution. 45 μL of stock solution is transferred to a 384 polypropylene plate (pp-plate). Perform 3-fold, 10-point dilution via transferring 15 μL compound into 30 μL DMSO using a TECAN (EVO200) liquid handler.
2.2 Spin plates at room temperature at 1,000 RPM for 1 minute.
2.3 Transfer 120 nL of diluted compound from compound source plate into the cell plate.
2.4 After compound treatment for 72 hours, perform CTG detection for compound treatment plates as described in “Detection” section.
3.1 Plates are removed from incubators and equilibrated at room temperature for 15 minutes.
3.2 Thaw the CellTiter Glo reagents and allow to equilibrate to room temperature before the experiment.
3.3 Add 40 μL of CellTiter-Glo reagent into each well (at 1:1 to culture medium). Then place the plates at room temperature for 30 min followed by reading on EnVision.
4.1 Inhibition activity is calculated following the formula below:
% Inhibition=100×(LumHC−LumSample)/(LumHC−LumLC) • where HC is obtained from cells treated with 0.1% DMSO only; and LC is obtained from culture medium only.
4.2 2. Calculate the IC50 by fitting the Curve using Xlfit (v5.3.1.3), equation 201.
Y=Bottom+(Top−Bottom)/(1+10^((Log IC50−X)*HillSlope))

SMILES	IC50 [1] [nM]	IC50 [2] [nM]	IC50 [3] [nM]	IC50 [4] [nM]
COc1c(Cl)cccc1Nc1c(-c2ccncc2F)[nH]c2c1C(=O)NCC21CCN(C(=O)/C=C/CN(C)C)CC1 [Compound 522, 3′-[(3-chloro-2-methoxyphenyl)amino]-1-[4-(dimethylamino)but-2-enoyl]-2′-(3-fluoropyridin-4-yl)-5′,6′-dihydro-1′H-spiro[piperidine-4,7′-pyrrolo[3,2-c]pyridin]-4′-one]	100 to 1000	100 to 1000	> 1000	100 to 1000
COc1c(F)cccc1Nc1c(-c2ccncn2)[nH]c2c1C(=O)NC[C@@H]2C[C@@H]1COCCO1 [Compound 529, (7S)-7-[(2R)-1,4-dioxan-2-ylmethyl]-3-[(3-fluoro-2-methoxyphenyl)amino]-2-(pyrimidin-4-yl)-1H,5H,6H,7H-pyrrolo[3,2-c]pyridin-4-one]	100 to 1000	100 to 1000	> 1000	100 to 1000
C=CC(=O)N1CCC(Oc2nc3c(-c4[nH]c5c(c4Nc4cccc(F)c4OC)C(=O)NCC5)ccnc3cc2OC)CC1 [Compound 554, 3-[(3-fluoro-2-methoxyphenyl)amino]-2-(7-methoxy-6-{[1-(prop-2-enoyl)piperidin-4-yl]oxy}-1,5-naphthyridin-4-yl)-1H,5H,6H,7H-pyrrolo[3,2-c]pyridin-4-one]	< 100	< 100	< 100	< 100
CC#CC(=O)N1CCC2(CC1)CNC(=O)c1c2[nH]c(-c2ccncc2F)c1Nc1cccc(Cl)c1OC [Compound 555, 1-(but-2-ynoyl)-3′-[(3-chloro-2-methoxyphenyl)amino]-2′-(3-fluoropyridin-4-yl)-5′,6′-dihydro-1′H-spiro[piperidine-4,7′-pyrrolo[3,2-c]pyridin]-4′-one]	> 1000	> 1000	> 1000	> 1000
C=CC(=O)N1CCC2(CC1)CNC(=O)c1c2[nH]c(-c2ccnc(N)n2)c1Nc1cccc(Cl)c1OC [Compound 556, 2′-(2-aminopyrimidin-4-yl)-3′-[(3-chloro-2-methoxyphenyl)amino]-1-(prop-2-enoyl)-5′,6′-dihydro-1′H-spiro[piperidine-4,7′-pyrrolo[3,2-c]pyridin]-4′-one]	< 100	< 100	100 to 1000	< 100
C=CC(=O)N1CCC2(CC1)CNC(=O)c1c2[nH]c(-c2ccncc2F)c1Nc1cccc(Cl)c1CC [Compound 558, 3′-[(3-chloro-2-ethylphenyl)amino]-2′-(3-fluoropyridin-4-yl)-1-(prop-2-enoyl)-5′,6′-dihydro-1′H-spiro[piperidine-4,7′-pyrrolo[3,2-c]pyridin]-4′-one]	< 100	< 100	< 100	< 100
C=CC(=O)N1CCC2(CC1)CNC(=O)c1c2[nH]c(-c2ccncc2F)c1Nc1cccc(F)c1SC [Compound 560, 3′-{[3-fluoro-2-(methylsulfanyl)phenyl]amino}-2′-(3-fluoropyridin-4-yl)-1-(prop-2-enoyl)-5′,6′-dihydro-1′H-spiro[piperidine-4,7′-pyrrolo[3,2-c]pyridin]-4′-one]	< 100	< 100	100 to 1000	< 100
C=CC(=O)N1CCC2(CC1)CNC(=O)c1c2[nH]c(-c2ccncc2F)c1Nc1cccc(Br)c1OC [Compound 561, 3′-[(3-bromo-2-methoxyphenyl)amino]-2′-(3-fluoropyridin-4-yl)-1-(prop-2-enoyl)-5′,6′-dihydro-1′H-spiro[piperidine-4,7′-pyrrolo[3,2-c]pyridin]-4′-one]	< 100	< 100	100 to 1000	< 100
COc1c(F)cccc1Nc1c(-c2ccnc3cnc(N4CCN(C(=O)/C=C/CN(C)C)CC4)nc23)[nH]c2c1C(=O)NCC2 [Compound 577, 2-(2-{4-[(2E)-4-(dimethylamino)but-2-enoyl]piperazin-1-yl}pyrido[3,2-d]pyrimidin-8-yl)-3-[(3-fluoro-2-methoxyphenyl)amino]-1H,5H,6H,7H-pyrrolo[3,2-c]pyridin-4-one]	< 100	< 100	100 to 1000	< 100
C=CC(=O)N1CCC2(CC1)CNC(=O)c1c2[nH]c(-c2ccncc2F)c1Nc1cccc(F)c1F [Compound 585, 3′-[(2,3-difluorophenyl)amino]-2′-(3-fluoropyridin-4-yl)-1-(prop-2-enoyl)-5′,6′-dihydro-1′H-spiro[piperidine-4,7′-pyrrolo[3,2-c]pyridin]-4′-one]	< 100	< 100	100 to 1000	< 100
C=CC(=O)N1CCC2(CC1)CNC(=O)c1c2[nH]c(-c2ccncc2F)c1Nc1cccc(Cl)c1F [Compound 586, 3′-[(3-chloro-2-fluorophenyl)amino]-2′-(3-fluoropyridin-4-yl)-1-(prop-2-enoyl)-5′,6′-dihydro-1′H-spiro[piperidine-4,7′-pyrrolo[3,2-c]pyridin]-4′-one]	< 100	< 100	100 to 1000	< 100
C=CC(=O)N1CCC2(CC1)CNC(=O)c1c2[nH]c(-c2ccncc2F)c1Nc1ccc(F)c(Cl)c1 [Compound 587, 3′-[(3-chloro-4-fluorophenyl)amino]-2′-(3-fluoropyridin-4-yl)-1-(prop-2-enoyl)-5′,6′-dihydro-1′H-spiro[piperidine-4,7′-pyrrolo[3,2-c]pyridin]-4′-one]	< 100	< 100	100 to 1000	< 100
C=CC(=O)N1CCC2(CC1)CNC(=O)c1c2[nH]c(-c2ccncc2F)c1Nc1ccc(Cl)c(F)c1 [Compound 588, 3′-[(4-chloro-3-fluorophenyl)amino]-2′-(3-fluoropyridin-4-yl)-1-(prop-2-enoyl)-5′,6′-dihydro-1′H-spiro[piperidine-4,7′-pyrrolo[3,2-c]pyridin]-4′-one]	< 100	< 100	< 100	< 100
C=CC(=O)N1CCC2(CC1)CNC(=O)c1c2[nH]c(-c2ccncc2F)c1Nc1cccc(Cl)c1Cl [Compound 589, 3′-[(2,3-dichlorophenyl)amino]-2′-(3-fluoropyridin-4-yl)-1-(prop-2-enoyl)-5′,6′-dihydro-1′H-spiro[piperidine-4,7′-pyrrolo[3,2-c]pyridin]-4′-one]	< 100	< 100	100 to 1000	< 100
C=CC(=O)N1CCC2(CC1)CNC(=O)c1c2[nH]c(-c2ccncc2F)c1Nc1ccc(Cl)c(Cl)c1 [Compound 590, 3′-[(3,4-dichlorophenyl)amino]-2′-(3-fluoropyridin-4-yl)-1-(prop-2-enoyl)-5′,6′-dihydro-1′H-spiro[piperidine-4,7′-pyrrolo[3,2-c]pyridin]-4′-one]	> 1000	> 1000	> 1000	100 to 1000
CCn1cc(Nc2nccc(-c3[nH]c4c(c3Nc3cccc(Cl)c3OC)C(=O)NCC4)n2)nn1 [Compound 594, 3-[(3-chloro-2-methoxyphenyl)amino]-2-{2-[(1-ethyl-1,2,3-triazol-4-yl)amino]pyrimidin-4-yl}-1H,5H,6H,7H-pyrrolo[3,2-c]pyridin-4-one]	< 100	< 100	100 to 1000	< 100
